We go through eleven compounds from patent US9957265B2, “N-(2-cyano heterocyclyl) pyrazolo pyridones as janus kinase inhibitors” (Merck Sharp & Dohme Corp., priority 2013, dated 2018).

Each structure is given as a SMILES string. Where two headings read alike, the source gives them in different places.

For one test, the target named is JAK1 (Homo sapiens (Human), UniProt P23458). Description: Jak Biochemical HTRF Assay (JAK1). To be noted: recombinant GST-tagged catalytic domain, [ATP] 31.8 μM, unit not given (compound concentrations tested given in nM). The source says: Jak Biochemical HTRF Assay Protocol
JAK1, sequence (P23458 875-1153): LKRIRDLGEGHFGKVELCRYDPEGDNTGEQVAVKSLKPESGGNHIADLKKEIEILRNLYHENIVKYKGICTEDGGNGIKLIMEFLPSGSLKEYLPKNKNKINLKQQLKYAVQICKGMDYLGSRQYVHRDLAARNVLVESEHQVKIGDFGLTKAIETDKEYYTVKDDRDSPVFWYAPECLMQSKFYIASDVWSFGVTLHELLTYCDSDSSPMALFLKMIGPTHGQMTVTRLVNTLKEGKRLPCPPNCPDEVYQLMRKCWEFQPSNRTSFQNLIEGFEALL
Subsequent reagent additions employed an Agilent Bravo.

For the next test, the target named is JAK2 (Homo sapiens (Human), UniProt O60674). In words: Jak Biochemical HTRF Assay (JAK2).
JAK2, sequence (O60674 849-1124): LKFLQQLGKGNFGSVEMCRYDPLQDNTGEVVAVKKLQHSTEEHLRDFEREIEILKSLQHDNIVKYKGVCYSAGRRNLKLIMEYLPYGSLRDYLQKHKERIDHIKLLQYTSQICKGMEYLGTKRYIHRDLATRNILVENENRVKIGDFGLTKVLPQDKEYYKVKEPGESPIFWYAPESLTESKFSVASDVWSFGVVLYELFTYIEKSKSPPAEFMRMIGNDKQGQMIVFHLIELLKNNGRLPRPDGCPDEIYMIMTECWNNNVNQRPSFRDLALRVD
Where [1] appears, read: read-out: JAK2 IC50, recombinant GST-tagged catalytic domain, [ATP] 8.5 μM, unit not given (compound concentrations tested given in nM).
Where [2] appears, read: JAK2 IC50, recombinant GST-tagged catalytic domain, [ATP] 8.5 μM, unit not given (compound concentrations tested given in nM).

Procedure for JAK2: The ability of compounds to inhibit the activity of JAK1, JAK2, JAK3, and TYK2 was measured using a recombinant purified GST-tagged catalytic domain for each enzyme (Invitrogen JAK1 #M4290, JAK2 #M4290, JAK3 #M4290, TYK2 #M4290) in an HTRF format biochemical assay. […] Subsequent reagent additions employed an Agilent Bravo. […] After equilibration, 2 μL of 10×ATP in 1× assay buffer was added to initiate the kinase reaction and the plates were shaken and then incubated at room temperature for 120 minutes. […] After normalization to untreated controls, the percent inhibition of the HTRF signal at each compound concentration was calculated. The plot of percent inhibition versus the log of compound concentration was fit with a 4-parameter dose response equation to calculate IC50 values.
Final reaction conditions were:

For the compound `N#C[C@H]1CCOC[C@@H]1n1nc(Nc2ccccc2)c2c(=O)[nH]ccc21` [Example 1-3, (3R,4S)-3-(4-oxo-3-(phenylamino)-4,5-dihydro-1H-pyrazolo[4,3-c]pyridin-1-yl)tetrahydro-2H-pyran-4-carbonitrile], the IC50 on JAK1 turned out to be 0.11 nM; on JAK2 (setting [1]), 1.39 nM.

Consider `N#C[C@H]1CCOC[C@@H]1n1nc(Nc2ccc(C(N3CCNCC3)C(F)(F)F)cc2)c2c(=O)[nH]ccc21` (single isomer, unassigned) [Example 1-38, (3R,4S)-3-[4-oxo-3-({4-[(1R or 1S)-2,2,2-trifluoro-1-piperazin-1-ylethyl]phenyl}amino)-4,5-dihydro-1H-pyrazolo[4,3-c]pyridin-1-yl]tetrahydro-2H-pyran-4-carbonitrile], for which the IC50 at JAK1 was found to be 0.09 nM; at JAK2 (setting [2]) it was 0.13 nM.

As to `CC(C)CNC(c1ccc(Nc2nn([C@H]3COCC[C@@H]3C#N)c3cc[nH]c(=O)c23)cc1)C(F)(F)F` (single isomer, unassigned) [Example 1-90, (3R,4S)-3-{4-oxo-3-[(4-{(1S or 1R)-2,2,2-trifluoro-1-[(2-methylpropyl)amino]ethyl}phenyl)amino]-4,5-dihydro-1H-pyrazolo[4,3-c]pyridin-1-yl}tetrahydro-2H-pyran-4-carbonitrile], the values for the IC50 on JAK1 and on JAK2 (setting [2]) were 0.21 nM and 0.4 nM, respectively.

For the compound `CC(c1ccc(Nc2nn([C@H]3COCC[C@@H]3C#N)c3cc[nH]c(=O)c23)cc1)n1nccn1` (single isomer, unassigned) [Example 1-44, (3R,4S)-3-[4-oxo-3-({4-[(1S or 1R)-1-(2H-1,2,3-triazol-2-yl)ethyl]phenyl}amino)-4,5-dihydro-1H-pyrazolo[4,3-c]pyridin-1-yl]tetrahydro-2H-pyran-4-carbonitrile], the IC50 at JAK1 turned out to be 0.12 nM; on JAK2 (setting [2]), 0.18 nM.

In the case of `CS(=O)(=O)c1cc(Nc2nn(C3COCC[C@@H]3C#N)c3cc[nH]c(=O)c23)ccc1Cl` (stereo partly drawn) [Example 3-1, (3R,4S)-3-(3-((4-chloro-3-(methylsulfonyl)phenyl)amino)-4-oxo-4,5-dihydro-1H-pyrazolo[4,3-t]pyridin-1-yl)tetrahydro-2H-pyran-4-carbonitrile], the IC50 on JAK1 is 1.64 nM; at JAK2 (setting [1]) it was 7.44 nM.

On to `N#C[C@H]1CCOC[C@@H]1n1nc(Nc2ccc(C3(C(F)(F)F)CCCCN3)cc2)c2c(=O)[nH]ccc21` (single isomer, unassigned) [Example 2-7, (3R,4S)-3-[4-oxo-3-({4-[(2S or 2R)-2-(trifluoromethyl)piperidin-2-yl]phenyl}amino)-4,5-dihydro-1H-pyrazolo[4,3-c]pyridin-1-yl] tetrahydro-2H-pyran-4-carbonitrile], for which the IC50 was 0.05 nM on JAK1 and 0.06 nM on JAK2 (setting [2]).

With `CC(C)NC1(C)C(=O)Nc2cc(Nc3nn(C4COCC[C@@H]4C#N)c4cc[nH]c(=O)c34)ccc21` (single isomer, unassigned) [Example 1-100, (3R,4S)-3-[3-({(3R or 3S)-3-methyl-3-[(1-methylethyl)amino]-2-oxo-2,3-dihydro-1H-indol-6-yl}amino)-4-oxo-4,5-dihydro-1H-pyrazolo[4,3-c]pyridin-1-yl] tetrahydro-2H-pyran-4-carbonitrile], the IC50 at JAK1 was found to be 0.06 nM; at JAK2 (setting [2]), 0.05 nM.

As to `CC(C)N1Cc2ccc(Nc3nn([C@H]4COCC[C@@H]4C#N)c4cc[nH]c(=O)c34)cc2C1` [Example 1-15, (3R,4S)-3-(3-{[2-(1-methylethyl)-2,3-dihydro-1H-isoindol-5-yl]amino}-4-oxo-4,5-dihydro-1H-pyrazolo[4,3-c]pyridin-1-yl)tetrahydro-2H-pyran-4-carbonitrile], the IC50 on JAK1 amounted to 0.12 nM; on JAK2 (setting [1]), 0.27 nM.

With `CC1CCCN1C(c1ccc(Nc2nn([C@H]3COCC[C@@H]3C#N)c3cc[nH]c(=O)c23)cc1)C(F)(F)F` (single isomer, unassigned) [Example 1-86, (3R,4S)-3-{4-oxo-3-[(4-{(1R or 1S)-2,2,2-trifluoro-1-[(2S or 2R)-2-methylpyrrolidin-1-yl]ethyl}phenyl)amino]-4,5-dihydro-1H-pyrazolo[4,3-c]pyridin-1-yl}tetrahydro-2H-pyran-4-carbonitrile], the IC50 was found to be 0.15 nM at JAK1 and 0.23 nM on JAK2 (setting [2]).

Take `CN(C)S(=O)(=O)c1ccc(Nc2nn([C@H]3COCC[C@@H]3C#N)c3cc[nH]c(=O)c23)cc1` [Example 1-6, 4-((1-((3R,4S)-4-cyanotetrahydro-2H-pyran-3-yl)-4-oxo-4,5-dihydro-1H-pyrazolo[4,3-c]pyridin-3-yl)amino)-N,N-dimethyl-benzenesulfonamide]: the IC50 on JAK1 was 0.07 nM; at JAK2 (setting [1]), 0.21 nM.

On to `N#C[C@H]1CCOC[C@@H]1n1nc(Nc2ccc3c(c2)CN(CC(F)(F)F)S3(=O)=O)c2c(=O)[nH]ccc21` [Example 1-62, (3R,4S)-3-(3-{[1,1-dioxido-2-(2,2,2-trifluoroethyl)-2,3-dihydro-1,2-benzothiazol-5-yl]amino}-4-oxo-4,5-dihydro-1H-pyrazolo[4,3-c]pyridin-1-yl)tetrahydro-2H-pyran-4-carbonitrile], for which the IC50 on JAK1 was found to be 0.05 nM; at JAK2 (setting [1]), 0.29 nM.
